Data from publication PMC4627656, “Combining Metabolite-Based Pharmacophores with Bayesian Machine Learning Models for Mycobacterium tuberculosis Drug Discovery” (PLoS ONE, 2015).
In brackets after ≈: the same amount, converted by molar mass. Where two headings read alike, the source gives them in different places.

Experiments:
Mtb H37Rv strain = test: Resazurin (Alamar Blue) MIC assay against replicating Mtb; format: cell-based, Mycobacterium tuberculosis; details: for MIC: Mycobacterium tuberculosis, H37RV
in vitro = details: African green monkey
[1] = in vitro cultured Mtb H37Rv, lowest concentration inhibiting ≥90% growth, initial hits, quinoxaline di-N-oxides, positive controls, read-out: Mtb MIC (H37Rv)
[2] = in vitro cultured Mtb H37Rv, lowest concentration inhibiting ≥90% growth, initial hits, quinoxaline di-N-oxides, positive controls
[3] = synthesized BAS 00623753 and arylamide analogs (Table 1)
[4] = synthesized BAS 00623753 and arylamide analogs (Table 1), read-out: Mtb MIC (H37Rv)

SMILES	MIC (Mtb H37Rv strain; [1])	Mtb MIC (H37Rv) (Mtb H37Rv strain; [2])	further results
O=C(NCc1ccccn1)c1ccccc1[N+](=O)[O-] [BAS 00623753, 2-nitro-N-pyridin-2-ylmethyl-benzamide]	5 µg/mL (≈ 19.4 µM)	5 µg/mL	MIC (Mtb H37Rv strain; read-out: Mtb MIC (H37Rv), synthesized BAS 00623753 and arylamide analogs (Table 1)): ≥ 50 µg/mL
c1coc(CNCc2c[nH]c3ccccc23)c1 [BAS 7571651, furan-2-ylmethyl-(1H-indol-3-ylmethyl)-amine]	40 µg/mL (≈ 177 µM)	–	–
O=C(NCc1ccccn1)c1ccccc1 [JSF-2133]	–	–	Mtb MIC (H37Rv) (Mtb H37Rv strain; [3]): >50 µg/mL
O=C(NCCc1ccccn1)c1ccccc1[N+](=O)[O-] [JSF-2170]	–	–	Mtb MIC (H37Rv) (Mtb H37Rv strain; [3]): >50 µg/mL
O=C(NCc1cnccn1)c1ccccc1[N+](=O)[O-] [JSF-2171]	–	–	Mtb MIC (H37Rv) (Mtb H37Rv strain; [3]): >50 µg/mL
Cc1cccnc1CNC(=O)c1ccccc1[N+](=O)[O-] [JSF-2172]	–	–	Mtb MIC (H37Rv) (Mtb H37Rv strain; [3]): >50 µg/mL
Cc1ccnc(CNC(=O)c2ccccc2[N+](=O)[O-])c1 [JSF-2173]	–	–	Mtb MIC (H37Rv) (Mtb H37Rv strain; [3]): >50 µg/mL
O=C(NCc1ccc(Cl)cn1)c1ccccc1[N+](=O)[O-] [JSF-2174]	–	–	Mtb MIC (H37Rv) (Mtb H37Rv strain; [3]): >50 µg/mL
Cc1ccc(CNC(=O)c2ccccc2[N+](=O)[O-])nc1 [JSF-2175]	–	–	Mtb MIC (H37Rv) (Mtb H37Rv strain; [3]): >50 µg/mL
CC(C)(NC(=O)c1ccccc1[N+](=O)[O-])c1ncccn1 [JSF-2176]	–	–	MIC (Mtb H37Rv strain; [4]): > 50 µg/mL
O=C(NCc1ccncn1)c1ccccc1[N+](=O)[O-] [JSF-2177]	–	–	Mtb MIC (H37Rv) (Mtb H37Rv strain; [3]): >50 µg/mL
O=C(NCc1ncccn1)c1ccccc1[N+](=O)[O-] [JSF-2178]	–	–	MIC (Mtb H37Rv strain; [4]): > 50 µg/mL
O=C(NCc1ccccn1)c1ccccc1F [JSF-2208]	–	–	Mtb MIC (H37Rv) (Mtb H37Rv strain; [3]): >50 µg/mL
Cc1ccccc1C(=O)NCc1ccccn1 [JSF-2209]	–	–	Mtb MIC (H37Rv) (Mtb H37Rv strain; [3]): >50 µg/mL
O=C(NCc1ccccn1)c1ccccc1[N+](=O)[O-] [JSF-2210]	–	–	Mtb MIC (H37Rv) (Mtb H37Rv strain; [3]): >50 µg/mL
O=C(NCc1ccccn1)c1ccccc1C(F)(F)F [JSF-2211]	–	–	Mtb MIC (H37Rv) (Mtb H37Rv strain; [3]): >50 µg/mL
CO[C@H]1/C=C/O[C@@]2(C)Oc3c(C)c(O)c4c(O)c(c(/C=N/N5CCN(C)CC5)c(O)c4c3C2=O)NC(=O)/C(C)=C\C=C\[C@H](C)[C@H](O)[C@@H](C)[C@@H](O)[C@@H](C)[C@H](OC(C)=O)[C@@H]1C [Rifampicin, reference compound]	0.0031 to 0.012 µg/mL (≈ 0.00377 to 0.0146 µM)	–	–
CC(=O)c1c(C)[n+]([O-])c2ccc(C)cc2[n+]1[O-] [SRI2]	–	5.0 µg/mL	–
COc1ccc2c(c1)[n+]([O-])c(C(C)=O)c(C)[n+]2[O-] [SRI3]	–	10 µg/mL	–
CC(=O)c1c(C)[n+]([O-])c2ccc(Cl)cc2[n+]1[O-] [SRI4]	5 µg/mL (≈ 19.8 µM)	–	CC50 at 72 h (in vitro): > 40 µg/mL
CC(=O)c1c(C)[n+]([O-])c2cc([N+](=O)[O-])ccc2[n+]1[O-] [SRI5]	–	2.5 µg/mL	–
Cc1ccc2c(c1)[n+]([O-])c(C)c(C(=O)c1ccccc1)[n+]2[O-] [SRI6]	–	>40 µg/mL	–
Cc1c(C(=O)c2ccccc2)[n+]([O-])c2ccc(Cl)cc2[n+]1[O-] [SRI7]	–	5 µg/mL	–
Cc1c(C(=O)c2ccccc2)[n+]([O-])c2cc(Cl)ccc2[n+]1[O-] [SRI8]	10 µg/mL (≈ 31.8 µM)	–	–
COc1ccc2c(c1)[n+]([O-])c(C)c(C(=O)c1ccccc1)[n+]2[O-] [SRI9]	5 µg/mL (≈ 16.1 µM)	–	–

SMILES	MIC (Mtb H37Rv strain; [1])	Mtb MIC (H37Rv) (Mtb H37Rv strain; [2])	further results
Cc1c(C(=O)c2ccccc2)[n+]([O-])c2ccc([N+](=O)[O-])cc2[n+]1[O-] [SRI10]	5 µg/mL (≈ 15.4 µM)	–	–
Cc1c(C(=O)c2cccnc2)[n+]([O-])c2ccc(Cl)cc2[n+]1[O-] [SRI11]	–	10 µg/mL	–
COc1ccc2c(c1)[n+]([O-])c(C(=O)c1cccnc1)c(C)[n+]2[O-] [SRI12]	0.64 µg/mL (≈ 2.06 µM)	–	CC50 at 72 h (in vitro): 1.7 µg/mL (≈ 5.46 µM)
Cc1c(C(=O)c2cccnc2)[n+]([O-])c2ccc([N+](=O)[O-])cc2[n+]1[O-] [SRI13]	–	20 µg/mL	–
Cc1ccc2c(c1)[n+]([O-])c(C)c(C(=O)C(F)(F)F)[n+]2[O-] [SRI14]	–	10 µg/mL	–
COc1ccc2c(c1)[n+]([O-])c(C)c(C(=O)C(F)(F)F)[n+]2[O-] [SRI15]	–	10 µg/mL	–
CCCCC(=O)c1c(C)[n+]([O-])c2cc(Cl)ccc2[n+]1[O-] [SRI16]	–	5 µg/mL	–
CCCCC(=O)c1c(C)[n+]([O-])c2ccc(Cl)cc2[n+]1[O-] [SRI17]	2.5 µg/mL (≈ 8.48 µM)	–	–
Cc1c(C(=O)CC(C)C)[n+]([O-])c2cc(Cl)ccc2[n+]1[O-] [SRI18]	10 µg/mL (≈ 33.9 µM)	–	–
Cc1c(C(=O)CC(C)C)[n+]([O-])c2ccc(Cl)cc2[n+]1[O-] [SRI19]	–	5 µg/mL	–
CCCCCC(=O)c1c(C)[n+]([O-])c2cc(Cl)ccc2[n+]1[O-] [SRI20]	5 µg/mL (≈ 16.2 µM)	–	–
CCCCCC(=O)c1c(C)[n+]([O-])c2ccc(Cl)cc2[n+]1[O-] [SRI21]	–	10 µg/mL	–
C=CCCC(=O)c1c(C)[n+]([O-])c2cc(Cl)ccc2[n+]1[O-] [SRI22]	5 µg/mL (≈ 17.1 µM)	–	–
CCC(=O)c1c(CC)[n+]([O-])c2cc(Cl)ccc2[n+]1[O-] [SRI23]	5 µg/mL (≈ 17.8 µM)	–	–
CCC(=O)c1c(CC)[n+]([O-])c2ccc(Cl)cc2[n+]1[O-] [SRI24]	10 µg/mL (≈ 35.6 µM)	–	–
Cc1c(C(=O)C2CC2)[n+]([O-])c2ccc(Cl)cc2[n+]1[O-] [SRI25]	5 µg/mL (≈ 17.9 µM)	–	–
Cc1c(C(=O)C2CC2)[n+]([O-])c2cc(Cl)ccc2[n+]1[O-] [SRI26]	–	5 µg/mL	–
Cc1c(C(=O)C(C)C)[n+]([O-])c2ccc(Cl)cc2[n+]1[O-] [SRI27]	> 40 µg/mL	–	–
Cc1c(C(=O)C(C)C)[n+]([O-])c2cc(Cl)ccc2[n+]1[O-] [SRI28]	10 µg/mL (≈ 35.6 µM)	–	–
CC(C)=CCCC(=O)c1c(C)[n+]([O-])c2cc(Cl)ccc2[n+]1[O-] [SRI29]	–	5 µg/mL	–
CCCCC(=O)c1c(C)[n+]([O-])c2cc(C)ccc2[n+]1[O-] [SRI30]	5 µg/mL (≈ 18.2 µM)	–	–
CCCCCC(=O)c1c(C)[n+]([O-])c2cc(C)ccc2[n+]1[O-] [SRI31]	–	20 µg/mL	–
CCC(=O)c1c(CC)[n+]([O-])c2cc(C)ccc2[n+]1[O-] [SRI32]	5 µg/mL (≈ 19.2 µM)	–	–
Cc1ccc2c(c1)[n+]([O-])c(C)c(C(=O)C1CC1)[n+]2[O-] [SRI33]	–	5 µg/mL	–
Cc1ccc2c(c1)[n+]([O-])c(C)c(C(=O)CC(C)C)[n+]2[O-] [SRI34]	20 µg/mL (≈ 72.9 µM)	–	–

SMILES	MIC (Mtb H37Rv strain; [1])	Mtb MIC (H37Rv) (Mtb H37Rv strain; [2])	further results
C=CCCC(=O)c1c(C)[n+]([O-])c2cc(C)ccc2[n+]1[O-] [SRI35]	–	4.3 µg/mL	–
CC(C)=CCCC(=O)c1c(C)[n+]([O-])c2cc(C)ccc2[n+]1[O-] [SRI36]	–	10 µg/mL	–
CCC(=O)c1c(C)[n+]([O-])c2ccc(C)cc2[n+]1[O-] [SRI37]	–	10 µg/mL	–
Cc1ccc2c(c1)[n+]([O-])c(C)c(C(=O)C(C)C)[n+]2[O-] [SRI38]	–	10 µg/mL	–
CCCCC(=O)c1c(C)[n+]([O-])c2ccc(OC)cc2[n+]1[O-] [SRI39]	–	10 µg/mL	–
CCCCCC(=O)c1c(C)[n+]([O-])c2ccc(OC)cc2[n+]1[O-] [SRI40]	–	>40 µg/mL	–
CCC(=O)c1c(CC)[n+]([O-])c2ccc(OC)cc2[n+]1[O-] [SRI41]	–	40 µg/mL	–
COc1ccc2c(c1)[n+]([O-])c(C(=O)CC(C)C)c(C)[n+]2[O-] [SRI43]	20 µg/mL (≈ 68.9 µM)	–	–
C=CCCC(=O)c1c(C)[n+]([O-])c2ccc(OC)cc2[n+]1[O-] [SRI44]	–	20 µg/mL	–
COc1ccc2c(c1)[n+]([O-])c(C(=O)CCC=C(C)C)c(C)[n+]2[O-] [SRI45]	–	20 µg/mL	–
CCC(=O)c1c(C)[n+]([O-])c2ccc(OC)cc2[n+]1[O-] [SRI46]	–	20 µg/mL	–
COc1ccc2c(c1)[n+]([O-])c(C(=O)CC/C=C(\C)CCC=C(C)C)c(C)[n+]2[O-] [SRI47]	–	20 µg/mL	–
CC(C)=CCC/C(C)=C/CCC(=O)c1c(C)[n+]([O-])c2ccc(C)cc2[n+]1[O-] [SRI48]	5 µg/mL (≈ 13.6 µM)	–	–
CC(C)=CCC/C(C)=C/CCC(=O)c1c(C)[n+]([O-])c2ccc(Cl)cc2[n+]1[O-] [SRI49]	–	5 µg/mL	–
CC(C)=CCC/C(C)=C/CCC(=O)c1c(C)[n+]([O-])c2ccccc2[n+]1[O-] [SRI51]	–	5 µg/mL	–
Cc1c(C(=O)O)[n+]([O-])c2ccccc2[n+]1[O-] [SRI53]	> 40 µg/mL	>40 µg/mL	–
Cc1c(C(=O)c2cccnc2)[n+]([O-])c2cc(Cl)c(Cl)cc2[n+]1[O-] [SRI55]	2.5 µg/mL (≈ 7.14 µM)	–	CC50 at 72 h (in vitro): > 40 µg/mL
CC(C)=CCC/C(C)=C/CCC(=O)c1c(C)[n+]([O-])c2cc(Cl)c(Cl)cc2[n+]1[O-] [SRI56]	2.5 µg/mL (≈ 5.91 µM)	–	CC50 at 72 h (in vitro): 4.5 µg/mL (≈ 10.6 µM)
CC(C)=CCCC(=O)c1c(C)[n+]([O-])c2cc(Cl)c(Cl)cc2[n+]1[O-] [SRI57]	–	1.25 µg/mL	CC50 at 72 h (in vitro): > 40 µg/mL; MIC (Mtb H37Rv strain; read-out: Mtb MIC (H37Rv), in vitro cultured Mtb H37Rv, lowest concentration inhibiting ≥90% growth, initial hits, quinoxaline di-N-oxides, positive controls): 1.2 µg/mL (≈ 3.38 µM)
CCCCCC(=O)c1c(C)[n+]([O-])c2cc(Cl)c(Cl)cc2[n+]1[O-] [SRI59]	–	2.5 µg/mL	–
Cc1c(C(=O)CC(C)C)[n+]([O-])c2cc(Cl)c(Cl)cc2[n+]1[O-] [SRI60]	–	2.5 µg/mL	–
C=CCCC(=O)c1c(C)[n+]([O-])c2cc(Cl)c(Cl)cc2[n+]1[O-] [SRI61]	–	2.5 µg/mL	–
Cc1c(C(=O)c2ccccc2)[n+]([O-])c2cc(Cl)c(Cl)cc2[n+]1[O-] [SRI62]	–	2.5 µg/mL	–
NNC(=O)c1ccncc1 [isoniazid, reference compound]	0.0031 to 0.012 µg/mL (≈ 0.0226 to 0.0875 µM)	–	–
